What was measured:
[1] = Metabolic stability test in plasma; type: in vitro ADME, human; conditions: LC/MS; for remaining at 10 min: unchanged form after 10 minutes at 37°C in human plasma, read-out: Remaining rate in human plasma (%/10min); for remaining at 1 h: unchanged form after 60 minutes at 37°C in human plasma, read-out: Remaining rate in human plasma (%/60min)
Procedure, shortened: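 Compound in DMSO spiked into human, mouse or hamster plasma, incubated at 37°C for 0, 10 and 60 minutes, then quenched with acetonitrile/formic acid (final 0.1%). Unchanged compound in supernatant quantified by LC/MS; remaining rate (%) relative to time zero.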

[2] = Stability test in buffer (pH 7.4); type: physicochemical; conditions: phosphate buffer/acetonitrile 7:3, 100 mM potassium phosphate buffer (pH 7.4) and acetonitrile 7:3 (v/v), LC/MS; for remaining at 10 min: 10 minutes at 37°C, read-out: Buf. remaining rate (%/10min); for remaining at 1 h: 60 minutes at 37°C, read-out: Buf. remaining rate (%/60min)
Procedure, shortened: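 Compound from DMSO solution incubated at 37°C in 100 mM potassium phosphate buffer/acetonitrile 7:3 (v/v) for 0, 10 and 60 min, then quenched with acetonitrile containing formic acid (final 0.1%). Unchanged compound in supernatant quantified by LC/MS; remaining rate (%) = amount at each time / amount at zero time × 100.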

[3] = Metabolic stability test in liver S9; type: in vitro ADME; conditions: pH 7.4, human liver S9 2 mg protein/mL, LC/MS; for remaining at 10 min: unchanged form after 10 minutes at 37°C, read-out: Remaining rate in human liver S9 (%/10min); for remaining at 1 h: unchanged form after 60 minutes at 37°C, read-out: Remaining rate in human liver S9 (%/60min)
Procedure, shortened: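 Compound from DMSO solution was incubated at 37°C with human liver S9 (final 2 mg protein/mL) in 100 mM potassium phosphate pH 7.4 with an NADPH-regenerating system for 0, 10 and 60 minutes. Reactions were stopped with acetonitrile/0.1% formic acid. Unchanged compound was measured by LC/MS as remaining rate (%) relative to zero time.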

## CCOC(=O)c1ccc(OC(=O)CCCc2ccc(NC(=O)c3ccc(C)nc3-c3ccc(C(F)(F)F)cc3)c(C(=O)N(C)C)c2)cc1 [Compound 1-71, 4-[4-(3-dimethylcarbamoyl-4-{[6-methyl-2-(4-trifluoromethylphenyl)pyridine-3-carbonyl]amino}phenyl)butyryloxy]benzoic acid ethyl ester]
[1]
  remaining at 10 min: 53%
  remaining at 1 h: 0%
[2]
  remaining at 10 min: 102%
  remaining at 1 h: 105%
[3]
  remaining at 10 min: 0%
  remaining at 1 h: 0%

## COC(=O)c1cc(C(=O)OC(C)C)ccc1OC(=O)CCCc1ccc(NC(=O)c2ccc(C)nc2-c2ccc(C(F)(F)F)cc2)c(C(=O)N(C)C)c1 [Compound 1-72, 4-[4-(3-dimethylcarbamoyl-4-{[6-methyl-2-(4-trifluoromethylphenyl)pyridine-3-carbonyl]amino}phenyl)butyryloxy]isophthalic acid 1-isopropyl ester 3-methyl ester]
[1]
  remaining at 10 min: 0%
  remaining at 1 h: 0%
[2]
  remaining at 10 min: 113%
  remaining at 1 h: 112%
[3]
  remaining at 10 min: 4%
  remaining at 1 h: 0%

## CCc1cc(C(=O)OC)cc(Cl)c1OC(=O)CCCc1ccc(NC(=O)c2ccc(C)nc2-c2ccc(C(F)(F)F)cc2)c(C(=O)N(C)C)c1 [Compound 1-73, 3-chloro-4-[4-(3-dimethylcarbamoyl-4-{[6-methyl-2-(4-trifluoromethylphenyl)pyridine-3-carbonyl]amino}phenyl)butyryloxy]-5-ethylbenzoic acid methyl ester]
[1]
  remaining at 10 min: 78%
  remaining at 1 h: 19%
[2]
  remaining at 10 min: 101%
  remaining at 1 h: 101%
[3]
  remaining at 10 min: 10%
  remaining at 1 h: 0%

## COC(=O)c1cc(Cl)c(OC(=O)CCCc2ccc(NC(=O)c3ccc(C)nc3-c3ccc(C(F)(F)F)cc3)c(C(=O)N(C)C)c2)c(C(C)C)c1 [Compound 1-74, 3-chloro-4-[4-(3-dimethylcarbamoyl-4-{[6-methyl-2-(4-trifluoromethylphenyl)pyridine-3-carbonyl]amino}phenyl)butyryloxy]-5-isopropylbenzoic acid methyl ester]
[1]
  remaining at 10 min: 77%
  remaining at 1 h: 19%
[2]
  remaining at 10 min: 102%
  remaining at 1 h: 101%
[3]
  remaining at 10 min: 24%
  remaining at 1 h: 9%

## CCCOC(=O)c1cc(Cl)c(OC(=O)CCCc2ccc(NC(=O)c3ccc(C)nc3-c3ccc(C(F)(F)F)cc3)c(C(=O)N(C)C)c2)c(OC)c1 [Compound 1-75, 3-chloro-4-[4-(3-dimethylcarbamoyl-4-{[6-methyl-2-(4-trifluoromethylphenyl)pyridine-3-carbonyl]amino}phenyl)butyryloxy]-5-methoxybenzoic acid propyl ester]
[1]
  remaining at 10 min: 0%
  remaining at 1 h: 0%
[2]
  remaining at 10 min: 113%
  remaining at 1 h: 124%
[3]
  remaining at 10 min: 23%
  remaining at 1 h: 3%

## CC(C)OCCOC(=O)c1ccc(OC(=O)CCCc2ccc(NC(=O)c3ccccc3-c3ccc(C(F)(F)F)cc3)c(C(=O)N(C)C)c2)cc1 [Compound 1-76, 4-[4-(3-dimethylcarbamoyl-4-{(4'-trifluoromethylbiphenyl-2-carbonyl)amino}phenyl)butyryloxy]benzoic acid 2-isopropoxyethyl ester]
[1]
  remaining at 10 min: 50%
  remaining at 1 h: 1%
[2]
  remaining at 10 min: 99%
  remaining at 1 h: 100%
[3]
  remaining at 10 min: 5%
  remaining at 1 h: 2%

## CC(=O)NCCOC(=O)c1ccc(OC(=O)CCCc2ccc(NC(=O)c3ccccc3-c3ccc(C(F)(F)F)cc3)c(C(=O)N(C)C)c2)cc1 [Compound 1-77, 4-[4-(3-dimethylcarbamoyl-4-{(4'-trifluoromethylbiphenyl-2-carbonyl)amino}phenyl)butyryloxy]benzoic acid 2-acetylaminoethyl ester]
[1]
  remaining at 10 min: 59%
  remaining at 1 h: 2%
[2]
  remaining at 10 min: 99%
  remaining at 1 h: 100%
[3]
  remaining at 10 min: 0%
  remaining at 1 h: 0%

## CN(C)C(=O)c1cc(CCCC(=O)Oc2ccc(C(=O)OCC(=O)OCc3ccccc3)cc2)ccc1NC(=O)c1ccccc1-c1ccc(C(F)(F)F)cc1 [Compound 1-78, 4-[4-(3-dimethylcarbamoyl-4-{(4'-trifluoromethylbiphenyl-2-carbonyl)amino}phenyl)butyryloxy]benzoic acid benzyloxycarbonylmethyl ester]
[1]
  remaining at 10 min: 51%
  remaining at 1 h: 2%
[2]
  remaining at 10 min: 97%
  remaining at 1 h: 97%
[3]
  remaining at 10 min: 10%
  remaining at 1 h: 2%

## CN(C)C(=O)c1cc(CCCC(=O)Oc2ccc(C(=O)OCc3ccc(Cl)cc3)cc2)ccc1NC(=O)c1ccccc1-c1ccc(C(F)(F)F)cc1 [Compound 1-79, 4-[4-(3-dimethylcarbamoyl-4-{(4'-trifluoromethylbiphenyl-2-carbonyl)amino}phenyl)butyryloxy]benzoic acid 4-chlorobenzyl ester]
[1]
  remaining at 10 min: 0%
  remaining at 1 h: 0%
[2]
  remaining at 10 min: 96%
  remaining at 1 h: 95%
[3]
  remaining at 10 min: 20%
  remaining at 1 h: 4%

## Cc1ccc(C(=O)Nc2ccc(CCCC(=O)Oc3ccc(C(=O)OCc4ccccc4)cc3)cc2C(=O)N(C)C)c(-c2ccc(C(F)(F)F)cc2)n1 [Compound 1-80, 4-[4-(3-dimethylcarbamoyl-4-{[6-methyl-2-(4-trifluoromethylphenyl)pyridine-3-carbonyl]amino}phenyl)butyryloxy]benzoic acid benzyl ester]
[1]
  remaining at 10 min: 4%
  remaining at 1 h: 0%
[2]
  remaining at 10 min: 100%
  remaining at 1 h: 101%
[3]
  remaining at 10 min: 5%
  remaining at 1 h: 0%

## Cc1ccc(C(=O)Nc2ccc(CCCC(=O)Oc3ccc(C(=O)OC(C)C)cc3)cc2C(=O)N(C)C)c(-c2ccc(C(F)(F)F)cc2)n1 [Compound 1-81, 4-[4-(3-dimethylcarbamoyl-4-{[6-methyl-2-(4-trifluoromethylphenyl)pyridine-3-carbonyl]amino}phenyl)butyryloxy]benzoic acid isopropyl ester]
[1]
  remaining at 10 min: 51%
  remaining at 1 h: 2%
[2]
  remaining at 10 min: 99%
  remaining at 1 h: 97%
[3]
  remaining at 10 min: 4%
  remaining at 1 h: 1%

## CN(C)C(=O)c1cc(CCCC(=O)Oc2ccc(C(=O)OCc3ccccn3)cc2)ccc1NC(=O)c1ccccc1-c1ccc(C(F)(F)F)cc1 [Compound 1-82, 4-[4-(3-dimethylcarbamoyl-4-{(4'-trifluoromethylbiphenyl-2-carbonyl)amino}phenyl)butyryloxy]benzoic acid pyridin-2-ylmethyl ester]
[1]
  remaining at 10 min: 17%
  remaining at 1 h: 0%
[2]
  remaining at 10 min: 100%
  remaining at 1 h: 103%
[3]
  remaining at 10 min: 0%
  remaining at 1 h: 0%

## CN(C)C(=O)c1cc(CCCC(=O)Oc2ccc(C(=O)OCc3cccnc3)cc2)ccc1NC(=O)c1ccccc1-c1ccc(C(F)(F)F)cc1 [Compound 1-83, 4-[4-(3-dimethylcarbamoyl-4-((4'-trifluoromethylbiphenyl-2-carbonyl)amino}phenyl)butyryloxy]benzoic acid pyridin-3-ylmethyl ester]
[1]
  remaining at 10 min: 39%
  remaining at 1 h: 0%
[2]
  remaining at 10 min: 99%
  remaining at 1 h: 99%
[3]
  remaining at 10 min: 0%
  remaining at 1 h: 0%

## CN(C)C(=O)c1cc(CCCC(=O)Oc2ccc(C(=O)OCc3ccncc3)cc2)ccc1NC(=O)c1ccccc1-c1ccc(C(F)(F)F)cc1 [Compound 1-84, 4-[4-(3-dimethylcarbamoyl-4-{(4'-trifluoromethylbiphenyl-2-carbonyl)amino}phenyl)butyryloxy]benzoic acid pyridin-4-ylmethyl ester]
[1]
  remaining at 10 min: 21%
  remaining at 1 h: 0%
[2]
  remaining at 10 min: 99%
  remaining at 1 h: 101%
[3]
  remaining at 10 min: 1%
  remaining at 1 h: 0%

## CN(C)C(=O)COC(=O)c1ccc(OC(=O)CCCc2ccc(NC(=O)c3ccccc3-c3ccc(C(F)(F)F)cc3)c(C(=O)N(C)C)c2)cc1 [Compound 1-85, 4-[4-(3-dimethylcarbamoyl-4-{(4'-trifluoromethylbiphenyl-2-carbonyl)amino}phenyl)butyryloxy]benzoic acid dimethylcarbamoylmethyl ester]
[1]
  remaining at 10 min: 61%
  remaining at 1 h: 4%
[2]
  remaining at 10 min: 103%
  remaining at 1 h: 102%
[3]
  remaining at 10 min: 0%
  remaining at 1 h: 0%

## COC(=O)COC(=O)c1ccc(OC(=O)CCCc2ccc(NC(=O)c3ccccc3-c3ccc(C(F)(F)F)cc3)c(C(=O)N(C)C)c2)cc1 [Compound 1-86, 4-[4-(3-dimethylcarbamoyl-4-{(4'-trifluoromethylbiphenyl-2-carbonyl)amino}phenyl)butyryloxy]benzoic acid methoxycarbonylmethyl ester]
[1]
  remaining at 10 min: 40%
  remaining at 1 h: 0%
[2]
  remaining at 10 min: 99%
  remaining at 1 h: 103%
[3]
  remaining at 10 min: 0%
  remaining at 1 h: 0%

— patent EP1803452A1, “ESTER DERIVATIVE AND PHARMACEUTICAL USE THEREOF” (Japan Tobacco, Inc., priority 2004, dated 2006)
